Test results published in patent US20230017045A1, “PYRIDINE AND PYRIMIDINE CARBOXYLATE HERBICIDES AND METHODS OF USE THEREOF” (Dow AgroSciences LLC, priority 2017, published 2023).

test system: test plant species; test: Post-emergent herbicidal activity test (greenhouse, foliar spray, visual growth reduction); assay type: in vivo; settings: post-emergence, 336 h, ECHCG: barnyardgrass (Echinochloa crus-galli), 140 g ai/ha, 14 days after application, read-out: Visual Growth Reduction (%) 14 Days After Application, ECHCG
How it was run: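 Visual scoring 14 d after treatment (0 = no injury, 100 = complete control) against nontreated and solvent-blank plants gave percent growth reduction. Foliar application used a track sprayer delivering 187 L/ha to seedlings at first or second true leaf stage, grown at 23–29 °C day, ~15 h photoperiod.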

SMILES | pest or weed control at 140 g/ha
COC(=O)c1nc(-c2c(C)cc(C(F)(F)F)cc2Cl)ccc1Cl [F250, Methyl 3-chloro-6-(2-chloro-6-methyl-4-(trifluoromethyl)phenyl) picolinate] | 0 to 29%
COC(=O)c1nc(-c2ccc(C(F)(F)F)c(OC)c2)c(F)cc1Cl [F295, Methyl 3-chloro-5-fluoro-6-(3-methoxy-4-(trifluoromethyl)phenyl)picolinate] | 0 to 29%
CCC(F)c1c(Cl)ccc(-c2ccc(Cl)c(C(=O)OC)n2)c1F (stereo not drawn) [F285, Methyl 3-chloro-6-(4-chloro-2-fluoro-3-(1-fluoropropyl)phenyl) picolinate] | 0 to 29%
COC(=O)c1nc(-c2ccccc2)c(F)cc1Cl [F219, Methyl 3-chloro-5-fluoro-6-phenylpicolinate] | 0 to 29%

same assay, conditions: post-emergence, 336 h, IPOHE: ivy-leaf morning glory (Ipomoea hederacea), 140 g ai/ha, 14 days after application, read-out: Visual Growth Reduction (%) 14 Days After Application, IPOHE

SMILES | pest or weed control at 140 g/ha
COC(=O)c1nc(-c2c(C)cc(C(F)(F)F)cc2Cl)ccc1Cl [F250, Methyl 3-chloro-6-(2-chloro-6-methyl-4-(trifluoromethyl)phenyl) picolinate] | 95 to 100%
COC(=O)c1nc(-c2ccc(C(F)(F)F)c(OC)c2)c(F)cc1Cl [F295, Methyl 3-chloro-5-fluoro-6-(3-methoxy-4-(trifluoromethyl)phenyl)picolinate] | 60 to 74%
CCC(F)c1c(Cl)ccc(-c2ccc(Cl)c(C(=O)OC)n2)c1F (stereo not drawn) [F285, Methyl 3-chloro-6-(4-chloro-2-fluoro-3-(1-fluoropropyl)phenyl) picolinate] | 0 to 29%
COC(=O)c1nc(-c2ccccc2)c(F)cc1Cl [F219, Methyl 3-chloro-5-fluoro-6-phenylpicolinate] | 45 to 59%

same assay, conditions: post-emergence, 336 h, KCHSC: kochia (Bassia scoparia), 140 g ai/ha, 14 days after application, read-out: Visual Growth Reduction (%) 14 Days After Application, KCHSC

SMILES | pest or weed control at 140 g/ha
COC(=O)c1nc(-c2c(C)cc(C(F)(F)F)cc2Cl)ccc1Cl [F250, Methyl 3-chloro-6-(2-chloro-6-methyl-4-(trifluoromethyl)phenyl) picolinate] | 0 to 29%
COC(=O)c1nc(-c2ccc(C(F)(F)F)c(OC)c2)c(F)cc1Cl [F295, Methyl 3-chloro-5-fluoro-6-(3-methoxy-4-(trifluoromethyl)phenyl)picolinate] | 0 to 29%
CCC(F)c1c(Cl)ccc(-c2ccc(Cl)c(C(=O)OC)n2)c1F (stereo not drawn) [F285, Methyl 3-chloro-6-(4-chloro-2-fluoro-3-(1-fluoropropyl)phenyl) picolinate] | 0 to 29%
COC(=O)c1nc(-c2ccccc2)c(F)cc1Cl [F219, Methyl 3-chloro-5-fluoro-6-phenylpicolinate] | 0 to 29%

same assay, conditions: post-emergence, 336 h, ORYSA: rice (Oryza sativa), 140 g ai/ha, 14 days after application, read-out: Visual Growth Reduction (%) 14 Days After Application, ORYSA

SMILES | pest or weed control at 140 g/ha
COC(=O)c1nc(-c2c(C)cc(C(F)(F)F)cc2Cl)ccc1Cl [F250, Methyl 3-chloro-6-(2-chloro-6-methyl-4-(trifluoromethyl)phenyl) picolinate] | 0 to 29%
COC(=O)c1nc(-c2ccc(C(F)(F)F)c(OC)c2)c(F)cc1Cl [F295, Methyl 3-chloro-5-fluoro-6-(3-methoxy-4-(trifluoromethyl)phenyl)picolinate] | 0 to 29%
CCC(F)c1c(Cl)ccc(-c2ccc(Cl)c(C(=O)OC)n2)c1F (stereo not drawn) [F285, Methyl 3-chloro-6-(4-chloro-2-fluoro-3-(1-fluoropropyl)phenyl) picolinate] | 0 to 29%
COC(=O)c1nc(-c2ccccc2)c(F)cc1Cl [F219, Methyl 3-chloro-5-fluoro-6-phenylpicolinate] | 0 to 29%

same assay, conditions: post-emergence, 336 h, SETFA: giant foxtail (Setaria faberi), 140 g ai/ha, 14 days after application, read-out: Visual Growth Reduction (%) 14 Days After Application, SETFA

SMILES | pest or weed control at 140 g/ha
COC(=O)c1nc(-c2c(C)cc(C(F)(F)F)cc2Cl)ccc1Cl [F250, Methyl 3-chloro-6-(2-chloro-6-methyl-4-(trifluoromethyl)phenyl) picolinate] | 45 to 59%
COC(=O)c1nc(-c2ccc(C(F)(F)F)c(OC)c2)c(F)cc1Cl [F295, Methyl 3-chloro-5-fluoro-6-(3-methoxy-4-(trifluoromethyl)phenyl)picolinate] | 0 to 29%
CCC(F)c1c(Cl)ccc(-c2ccc(Cl)c(C(=O)OC)n2)c1F (stereo not drawn) [F285, Methyl 3-chloro-6-(4-chloro-2-fluoro-3-(1-fluoropropyl)phenyl) picolinate] | 0 to 29%
COC(=O)c1nc(-c2ccccc2)c(F)cc1Cl [F219, Methyl 3-chloro-5-fluoro-6-phenylpicolinate] | 0 to 29%

same assay, conditions: post-emergence, 336 h, SORVU: grain sorghum (Sorghum vulgare), 140 g ai/ha, 14 days after application, read-out: Visual Growth Reduction (%) 14 Days After Application, SORVU

SMILES | pest or weed control at 140 g/ha
COC(=O)c1nc(-c2c(C)cc(C(F)(F)F)cc2Cl)ccc1Cl [F250, Methyl 3-chloro-6-(2-chloro-6-methyl-4-(trifluoromethyl)phenyl) picolinate] | 85 to 94%
COC(=O)c1nc(-c2ccc(C(F)(F)F)c(OC)c2)c(F)cc1Cl [F295, Methyl 3-chloro-5-fluoro-6-(3-methoxy-4-(trifluoromethyl)phenyl)picolinate] | 0 to 29%
CCC(F)c1c(Cl)ccc(-c2ccc(Cl)c(C(=O)OC)n2)c1F (stereo not drawn) [F285, Methyl 3-chloro-6-(4-chloro-2-fluoro-3-(1-fluoropropyl)phenyl) picolinate] | 0 to 29%
COC(=O)c1nc(-c2ccccc2)c(F)cc1Cl [F219, Methyl 3-chloro-5-fluoro-6-phenylpicolinate] | 60 to 74%

same assay, conditions: post-emergence, 336 h, STEME: common chickweed (Stellaria media), 140 g ai/ha, 14 days after application, read-out: Visual Growth Reduction (%) 14 Days After Application, STEME

SMILES | pest or weed control at 140 g/ha
COC(=O)c1nc(-c2c(C)cc(C(F)(F)F)cc2Cl)ccc1Cl [F250, Methyl 3-chloro-6-(2-chloro-6-methyl-4-(trifluoromethyl)phenyl) picolinate] | 0 to 29%
COC(=O)c1nc(-c2ccc(C(F)(F)F)c(OC)c2)c(F)cc1Cl [F295, Methyl 3-chloro-5-fluoro-6-(3-methoxy-4-(trifluoromethyl)phenyl)picolinate] | 0 to 29%
CCC(F)c1c(Cl)ccc(-c2ccc(Cl)c(C(=O)OC)n2)c1F (stereo not drawn) [F285, Methyl 3-chloro-6-(4-chloro-2-fluoro-3-(1-fluoropropyl)phenyl) picolinate] | 0 to 29%
COC(=O)c1nc(-c2ccccc2)c(F)cc1Cl [F219, Methyl 3-chloro-5-fluoro-6-phenylpicolinate] | 0 to 29%

same assay, conditions: post-emergence, 336 h, TRZAS: wheat, spring (Triticum aestivum), 140 g ai/ha, 14 days after application, read-out: Visual Growth Reduction (%) 14 Days After Application, TRZAS

SMILES | pest or weed control at 140 g/ha
COC(=O)c1nc(-c2c(C)cc(C(F)(F)F)cc2Cl)ccc1Cl [F250, Methyl 3-chloro-6-(2-chloro-6-methyl-4-(trifluoromethyl)phenyl) picolinate] | 45 to 59%
COC(=O)c1nc(-c2ccc(C(F)(F)F)c(OC)c2)c(F)cc1Cl [F295, Methyl 3-chloro-5-fluoro-6-(3-methoxy-4-(trifluoromethyl)phenyl)picolinate] | 0 to 29%
CCC(F)c1c(Cl)ccc(-c2ccc(Cl)c(C(=O)OC)n2)c1F (stereo not drawn) [F285, Methyl 3-chloro-6-(4-chloro-2-fluoro-3-(1-fluoropropyl)phenyl) picolinate] | 0 to 29%
COC(=O)c1nc(-c2ccccc2)c(F)cc1Cl [F219, Methyl 3-chloro-5-fluoro-6-phenylpicolinate] | 0 to 29%

same assay, conditions: post-emergence, 336 h, blackgrass (Alopecurus myosuroides), 14 Days After Application, 140 g ai/ha, read-out: Visual Growth Reduction (%) ALOMY

SMILES | pest or weed control at 140 g/ha
COC(=O)c1nc(-c2c(C)cc(C(F)(F)F)cc2Cl)ccc1Cl [F250, Methyl 3-chloro-6-(2-chloro-6-methyl-4-(trifluoromethyl)phenyl) picolinate] | 0 to 29%
COC(=O)c1nc(-c2ccc(C(F)(F)F)c(OC)c2)c(F)cc1Cl [F295, Methyl 3-chloro-5-fluoro-6-(3-methoxy-4-(trifluoromethyl)phenyl)picolinate] | 0 to 29%
CCC(F)c1c(Cl)ccc(-c2ccc(Cl)c(C(=O)OC)n2)c1F (stereo not drawn) [F285, Methyl 3-chloro-6-(4-chloro-2-fluoro-3-(1-fluoropropyl)phenyl) picolinate] | 0 to 29%
COC(=O)c1nc(-c2ccccc2)c(F)cc1Cl [F219, Methyl 3-chloro-5-fluoro-6-phenylpicolinate] | 0 to 29%

same assay, conditions: post-emergence, 336 h, canada thistle (Cirsium arvense), 14 Days After Application, 140 g ai/ha, read-out: Visual Growth Reduction (%) CIRAR

SMILES | pest or weed control at 140 g/ha
COC(=O)c1nc(-c2c(C)cc(C(F)(F)F)cc2Cl)ccc1Cl [F250, Methyl 3-chloro-6-(2-chloro-6-methyl-4-(trifluoromethyl)phenyl) picolinate] | 60 to 74%
COC(=O)c1nc(-c2ccc(C(F)(F)F)c(OC)c2)c(F)cc1Cl [F295, Methyl 3-chloro-5-fluoro-6-(3-methoxy-4-(trifluoromethyl)phenyl)picolinate] | 60 to 74%
CCC(F)c1c(Cl)ccc(-c2ccc(Cl)c(C(=O)OC)n2)c1F (stereo not drawn) [F285, Methyl 3-chloro-6-(4-chloro-2-fluoro-3-(1-fluoropropyl)phenyl) picolinate] | 30 to 44%
COC(=O)c1nc(-c2ccccc2)c(F)cc1Cl [F219, Methyl 3-chloro-5-fluoro-6-phenylpicolinate] | 0 to 29%

same assay, conditions: post-emergence, 336 h, crabgrass (Digitaria sanguinalis), 14 Days After Application, 140 g ai/ha, read-out: Visual Growth Reduction (%) DIGSA

SMILES | pest or weed control at 140 g/ha
COC(=O)c1nc(-c2c(C)cc(C(F)(F)F)cc2Cl)ccc1Cl [F250, Methyl 3-chloro-6-(2-chloro-6-methyl-4-(trifluoromethyl)phenyl) picolinate] | 85 to 94%
COC(=O)c1nc(-c2ccc(C(F)(F)F)c(OC)c2)c(F)cc1Cl [F295, Methyl 3-chloro-5-fluoro-6-(3-methoxy-4-(trifluoromethyl)phenyl)picolinate] | 45 to 59%
CCC(F)c1c(Cl)ccc(-c2ccc(Cl)c(C(=O)OC)n2)c1F (stereo not drawn) [F285, Methyl 3-chloro-6-(4-chloro-2-fluoro-3-(1-fluoropropyl)phenyl) picolinate] | 0 to 29%
COC(=O)c1nc(-c2ccccc2)c(F)cc1Cl [F219, Methyl 3-chloro-5-fluoro-6-phenylpicolinate] | 30 to 44%

same assay, conditions: post-emergence, 336 h, lambsquarters (Chenopodium album), 14 Days After Application, 140 g ai/ha, read-out: Visual Growth Reduction (%) CHEAL

SMILES | pest or weed control at 140 g/ha
COC(=O)c1nc(-c2c(C)cc(C(F)(F)F)cc2Cl)ccc1Cl [F250, Methyl 3-chloro-6-(2-chloro-6-methyl-4-(trifluoromethyl)phenyl) picolinate] | 75 to 84%
COC(=O)c1nc(-c2ccc(C(F)(F)F)c(OC)c2)c(F)cc1Cl [F295, Methyl 3-chloro-5-fluoro-6-(3-methoxy-4-(trifluoromethyl)phenyl)picolinate] | 30 to 44%
CCC(F)c1c(Cl)ccc(-c2ccc(Cl)c(C(=O)OC)n2)c1F (stereo not drawn) [F285, Methyl 3-chloro-6-(4-chloro-2-fluoro-3-(1-fluoropropyl)phenyl) picolinate] | 0 to 29%
COC(=O)c1nc(-c2ccccc2)c(F)cc1Cl [F219, Methyl 3-chloro-5-fluoro-6-phenylpicolinate] | 45 to 59%

same assay, conditions: post-emergence, 336 h, redroot pigweed (Amaranthus retroflexus), 14 Days After Application, 140 g ai/ha, read-out: Visual Growth Reduction (%) AMARE

SMILES | pest or weed control at 140 g/ha
COC(=O)c1nc(-c2c(C)cc(C(F)(F)F)cc2Cl)ccc1Cl [F250, Methyl 3-chloro-6-(2-chloro-6-methyl-4-(trifluoromethyl)phenyl) picolinate] | 0 to 29%
COC(=O)c1nc(-c2ccc(C(F)(F)F)c(OC)c2)c(F)cc1Cl [F295, Methyl 3-chloro-5-fluoro-6-(3-methoxy-4-(trifluoromethyl)phenyl)picolinate] | 0 to 29%
CCC(F)c1c(Cl)ccc(-c2ccc(Cl)c(C(=O)OC)n2)c1F (stereo not drawn) [F285, Methyl 3-chloro-6-(4-chloro-2-fluoro-3-(1-fluoropropyl)phenyl) picolinate] | 0 to 29%
COC(=O)c1nc(-c2ccccc2)c(F)cc1Cl [F219, Methyl 3-chloro-5-fluoro-6-phenylpicolinate] | 0 to 29%

same assay, conditions: post-emergence, 336 h, wild oat (Avena fatua), 14 Days After Application, 140 g ai/ha, read-out: Visual Growth Reduction (%) AVEFA

SMILES | pest or weed control at 140 g/ha
COC(=O)c1nc(-c2c(C)cc(C(F)(F)F)cc2Cl)ccc1Cl [F250, Methyl 3-chloro-6-(2-chloro-6-methyl-4-(trifluoromethyl)phenyl) picolinate] | 0 to 29%
COC(=O)c1nc(-c2ccc(C(F)(F)F)c(OC)c2)c(F)cc1Cl [F295, Methyl 3-chloro-5-fluoro-6-(3-methoxy-4-(trifluoromethyl)phenyl)picolinate] | 0 to 29%
CCC(F)c1c(Cl)ccc(-c2ccc(Cl)c(C(=O)OC)n2)c1F (stereo not drawn) [F285, Methyl 3-chloro-6-(4-chloro-2-fluoro-3-(1-fluoropropyl)phenyl) picolinate] | 0 to 29%
COC(=O)c1nc(-c2ccccc2)c(F)cc1Cl [F219, Methyl 3-chloro-5-fluoro-6-phenylpicolinate] | 0 to 29%

same assay, conditions: post-emergence, 336 h, yellow nutsedge (Cyperus esculentus), 14 Days After Application, 140 g ai/ha, read-out: Visual Growth Reduction (%) CYPES

SMILES | pest or weed control at 140 g/ha
COC(=O)c1nc(-c2c(C)cc(C(F)(F)F)cc2Cl)ccc1Cl [F250, Methyl 3-chloro-6-(2-chloro-6-methyl-4-(trifluoromethyl)phenyl) picolinate] | 0 to 29%
COC(=O)c1nc(-c2ccc(C(F)(F)F)c(OC)c2)c(F)cc1Cl [F295, Methyl 3-chloro-5-fluoro-6-(3-methoxy-4-(trifluoromethyl)phenyl)picolinate] | 75 to 84%
CCC(F)c1c(Cl)ccc(-c2ccc(Cl)c(C(=O)OC)n2)c1F (stereo not drawn) [F285, Methyl 3-chloro-6-(4-chloro-2-fluoro-3-(1-fluoropropyl)phenyl) picolinate] | 0 to 29%
COC(=O)c1nc(-c2ccccc2)c(F)cc1Cl [F219, Methyl 3-chloro-5-fluoro-6-phenylpicolinate] | 0 to 29%
